These results are taken from patent US5902826A, “Platinum (IV) complex and pharmaceutical composition comprising the same” (SS Pharmaceutical Co., Ltd., priority 1997, dated 1999).

For series [1], the system named is mouse M5076 tumor (M5076 reticulosarcoma). Description: Antitumor effect on mouse M5076 tumor (M5076 reticulosarcoma), s.c.-p.o. The format is in vivo. To be noted: for TI (therapeutic index): calculated from LD50 (single i.p.) and ID50 (p.o.); for dosage of GImax (in parentheses): dosage giving GImax, no mortal case; for dosage of GImax (in parentheses) / ID50 (dosage by which the GI value after 5 administrations shows 50%): p.o. once a day for 5 days; for GImax (maximum growth inhibition rate in the dosage range by which no mortal case can be found): male BDF1 mouse, 1×10^6 cells s.c., drug p.o. once a day for 5 days, 30 days of observation, average tumor weights vs non-treated group; for ID50 (dosage by which the GI value after 5 administrations shows 50%): calculated from linear regression line of GI at each dosage. As for the experimental part: Test on antitumor effect on mouse M5076 tumor
A total of 1×10^6 cells of mouse M5076 tumor were transplanted subcutaneously (s.c.) of a 6-week age male BDF1 mouse, a drug (compound of the present invention) was administered orally (p.o.) once a day for 5 days starting on the next day and then, after 30 days of observation, growth inhibition rate (GI) was calculated from the average tumor weights in the drug-treated group and the non-treated group. […] Each of the drugs to be tested was prepared just before its use by dissolving or suspending the drug (compound of the present invention) in olive oil using a handy sonicator. The dosage was 0.1 ml per 10 g mouse body weight. In Table 1, GImax is the maximum value (%) of GI in the dosage range by which no mortal case can be found, and its dosage (mg/kg) is shown in parentheses.

A short description of series [2]: LD50 (50% lethal dose by single intraperitoneal administration). The format is in vivo, mouse. The conditions noted are these: 50% lethal dose by single intraperitoneal administration, obtained at the time of dose setting.
The conditions of series [3]: background statement, derivative of cisplatin; cited from earlier work.
The conditions of series [4]: background statement, cited from earlier work.

As a reminder, the LD50 is the dose at which mortality reaches 50%. Read a high LD50 as lower toxicity. In the case of “1,1-cyclobutanedicarboxylato trans-dihydroxo (1,3-diamino-2-propanol)platinum (IV) [Compound 1]”, in series [1], the “TI (therapeutic index)” value is listed as above 25.0, the “dosage of GImax (in parentheses)” value turned out to be 32.0 mg/kg, the “GImax (maximum growth inhibition rate in the dosage range by which no mortal case can be found)” value came to 95.6% and the “ID50 (dosage by which the GI value after 5 administrations shows 50%)” value was below 8.0 mg/kg. In addition, in series [2], the LD50 is reported as above 200.0 mg/kg.
With `N.N.O=C([O-])C1(C(=O)[O-])CCC1.[Pt+2]` [Carboplatin, carboplatin, reference compound], in series [3], the solubility in water entry is recorded as “increased solubility in water”. Further, in series [1], the “TI (therapeutic index)” value is recorded as 2.0, the “dosage of GImax (in parentheses)” value is on record as 256.0 mg/kg, the “GImax (maximum growth inhibition rate in the dosage range by which no mortal case can be found)” value came to 75.3% and the “ID50 (dosage by which the GI value after 5 administrations shows 50%)” value is 119.9 mg/kg. Further, the renal toxicity result in series [4] (derivative of cisplatin) was “reduced renal toxicity”. In series [2], this molecule returned an LD50 of 245.0 mg/kg.
In the case of `N.N.[Cl][Pt][Cl]` [Cisplatin, cisplatin, reference compound], in series [1], the “dosage of GImax (in parentheses)” value was 8.0 mg/kg, the “GImax (maximum growth inhibition rate in the dosage range by which no mortal case can be found)” value worked out at 74.5% and the “ID50 (dosage by which the GI value after 5 administrations shows 50%)” value is reported as 3.2 mg/kg. For the same molecule, the “nephropathy as a side effect” value in series [4] is recorded as “sometimes causes serious nephropathy”.
Consider `O=C(OC1C[NH2+][Pt-2]2([O]C(=O)C(F)(F)F)([O]C(=O)C(F)(F)F)([NH2+]C1)[O]C(=O)C1(CCC1)C(=O)[O]2)C(F)(F)F` (stereo not drawn) [Compound 11, 1,1-cyclobutanedicarboxylato trans-bis(trifluoroacetato) (O-trifluoroacetyl-1,3-diamino-2-propanol)platinum (IV)], for which, in series [1], the “TI (therapeutic index)” value is on record as 17.3, the “dosage of GImax (in parentheses)” value stood at 32.0 mg/kg, the “GImax (maximum growth inhibition rate in the dosage range by which no mortal case can be found)” value worked out at 86.5% and the “ID50 (dosage by which the GI value after 5 administrations shows 50%)” value is given as 10.2 mg/kg. In addition, the LD50 in series [2] amounted to 176.5 mg/kg.
As for `O=C([O][Pt-2]12([O]C(=O)C(F)(F)F)([NH2+]CC(O)C[NH2+]1)[O]C(=O)C1(CCC1)C(=O)[O]2)C(F)(F)F` (stereo not drawn) [Compound 18, 1,1-cyclobutanedicarboxylato trans-bis(trifluoroacetato) (1,3-diamino-2-propanol)platinum (IV)], in series [1], the “TI (therapeutic index)” value was 18.4, the “dosage of GImax (in parentheses)” value is 32.0 mg/kg, the “GImax (maximum growth inhibition rate in the dosage range by which no mortal case can be found)” value was 95.6% and the “ID50 (dosage by which the GI value after 5 administrations shows 50%)” value was 9.6 mg/kg. In series [2], this molecule registered an LD50 of 176.8 mg/kg.
As for “trans-bis (acetato) 1,1-cyclobutanedicarboxylato (1,3-diamino-2-propanol) platinum (IV) [Compound 5]”, in series [1], the “TI (therapeutic index)” value is given as 9.2, the “dosage of GImax (in parentheses)” value is 64.0 mg/kg, the “GImax (maximum growth inhibition rate in the dosage range by which no mortal case can be found)” value is reported as 61.4% and the “ID50 (dosage by which the GI value after 5 administrations shows 50%)” value is listed as 38.4 mg/kg. Moreover, in series [2], the LD50 came out at 353.0 mg/kg.
